Experimental data: article PMC4306142, “Structure of mycobacterial maltokinase, the missing link in the essential GlgE-pathway” (Scientific Reports, 2015)

How the values were obtained:
Mak^Mvan [1] = target: T1, Mak^Mvan (Mycolicibacterium austroafricanum, UniProt A1TH50)
Mak^Mvan [2] = target: T1, Mak^Mvan; assay: X-ray crystal structure, […] Å; format: binding; parameters: full length (model Thr2-Gly441), C-terminal linker and His-tag kept, 454 residues in all; pET30a, NdeI/HindIII, E. coli; monomer; conditions: co-crystallised with 4 mM AppCp, two Mg2+; nucleotide site, two conformations
[3] = tested on: Nc1nc2c(ncn2[C@@H]2O[C@H](COP(=O)(O)OP(=O)(O)OP(=O)(O)O)[C@@H](O)[C@H]2O)c(=O)[nH]1; assay: purified protein; format: biochemical, Mycolicibacterium austroafricanum; conditions: pH 7.5; 30.0 °C

T1 sequence (A1TH50 whole entry): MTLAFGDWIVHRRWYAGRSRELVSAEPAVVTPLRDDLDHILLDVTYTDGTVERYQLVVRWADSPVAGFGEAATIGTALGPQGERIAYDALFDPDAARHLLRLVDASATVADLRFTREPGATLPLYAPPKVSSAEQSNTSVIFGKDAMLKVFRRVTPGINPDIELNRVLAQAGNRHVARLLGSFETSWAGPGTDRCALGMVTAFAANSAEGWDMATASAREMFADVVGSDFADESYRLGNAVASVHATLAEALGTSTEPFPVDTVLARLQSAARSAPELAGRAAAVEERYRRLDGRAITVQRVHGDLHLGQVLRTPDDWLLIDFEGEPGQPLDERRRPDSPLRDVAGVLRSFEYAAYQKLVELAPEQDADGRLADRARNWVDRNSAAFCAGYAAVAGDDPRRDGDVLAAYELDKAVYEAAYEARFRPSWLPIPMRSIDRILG

Nc1ncnc2c1ncn2[C@@H]1O[C@H](COP(=O)(O)OP(=O)(O)OP(=O)(O)O)[C@@H](O)[C@H]1O [ATP]
X-ray crystal structure, 1.71 Å (Mak^Mvan [1]): 4WZY (Mak^Mvan:ATP complex)

Nc1ncnc2c1ncn2[C@@H]1O[C@H](COP(=O)(O)OP(=O)(O)CP(=O)(O)O)[C@@H](O)[C@H]1O [AppCp, adenosine-5′-[(β,γ)-methyleno] triphosphate]
X-ray crystal structure, 1.15 Å (Mak^Mvan [2]): structure of Mak^Mvan in complex with the non-hydrolysable ATP analog

(Mycolicibacterium vanbaalenii PYR-1)
Km [3]: 5.8 ± 1.4 mM
